# According to PubChem BioAssay (NCI):
#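 Grown in 96-well plates, cells were treated for 48 hours with each compound at five concentrations. Insufficient inhibition: endpoint recorded as highest concentration tested. The concentration for full growth arrest is given as TGI.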 Where a SMILES comes first, the peptide text is derived from it.
# What was measured:
# Assay in all cases: NCI-60 cell line screen, 48 h
# CAKI-1 renal = test system: CAKI-1 renal
# DLD-1 colon = test system: DLD-1 colon
# DMS 273 small cell lung = test system: DMS 273 small cell lung
# K-562 leukemia = test system: K-562 leukemia
# OVCAR-3 ovarian = test system: OVCAR-3 ovarian
# RPMI-8226 leukemia = test system: RPMI-8226 leukemia
# SF-539 CNS = test system: SF-539 CNS
# TK-10 renal = test system: TK-10 renal
# UO-31 renal = test system: UO-31 renal
# T-47D breast = test system: T-47D breast
Compound,TGI (CAKI-1 renal) [µM],TGI (DLD-1 colon) [µM],TGI (DMS 273 small cell lung) [µM],TGI (K-562 leukemia) [µM],TGI (OVCAR-3 ovarian) [µM],TGI (RPMI-8226 leukemia) [µM],TGI (SF-539 CNS) [µM],TGI (TK-10 renal) [µM],TGI (UO-31 renal) [µM],TGI (T-47D breast) [µM]
CCCOP(=S)(N1CC1)N1CC1,> 100,> 100,> 100,> 100,> 100,> 100,> 100,> 100,> 100,
COc1ccc(/C=C(\Cl)c2ccc(OC)cc2)cc1,> 100,> 100,> 100,> 100,> 100,> 100,> 100,> 100,> 100,
Oc1ccc(Cn2c(-c3ccc(O)cc3)nc3ccccc32)cc1,> 100,> 100,> 100,> 100,> 100,> 100,> 100,> 100,> 100,> 100
CC#Cc1c(C#CC)c(OC)c2c(c1OC)C(=O)c1ccccc1C2=O,> 100,> 100,> 100,> 100,> 100,> 100,,> 100,> 100,
CC(=O)C1=NN(c2ccccc2)C2(S1)SC(c1ccccc1)(c1ccccc1)c1ccccc12 (stereo not given),,> 100,73.6,> 100,> 100,> 100,> 100,> 100,> 100,
O=[N+]([O-])c1ccc2[nH]c(O)c(N=NC(=S)Nc3ccccc3)c2c1,15.2,,,> 100,22.6,> 100,27.6,23.6,22,38.9
S=C(Nc1cccc(C2(N3CCCCC3)CCCCC2)c1)Nc1cccc(C2(N3CCCCC3)CCCCC2)c1,> 100,,,27.5,50.5,30.7,31.3,7.39,31.5,36.6
CN(C)Cc1[nH]c2ccccc2c1C(=O)c1ccccc1,> 100,> 100,> 100,> 100,> 100,> 100,> 100,> 100,> 100,
O=C1c2ccccc2C(=O)c2c(O)c(NCCNCCO)cc(O)c21,14.2,11.1,12,10.4,15.1,21.4,14.4,17.7,11.7,
CC(=O)NC(CO)C(=O)NC(Cc1ccc(O)cc1)C(=O)NCC(N)=O (stereo not drawn) (Ac-Ser-Tyr-Gly-NH2; configuration not given here),> 100,,,> 100,> 100,> 100,> 100,> 100,> 100,> 100
OC1(c2ccc3ccccc3c2)c2c(c3ccccc3c3ccccc23)C2=NCCN21 (stereo not given),> 100,,,> 100,36.9,6.87,13.1,35.4,> 48.8,> 40.6
CCCN(CCC)C(=O)c1c(Cl)c2cccnc2n2c(C)cnc12,79.7,,,> 100,> 100,> 100,> 100,> 100,> 100,> 100
O=C1/C(=C/c2ccc(Cl)cc2)Sc2scc(-c3cccc([N+](=O)[O-])c3)[n+]21,6.85,,,2.24,36,3.99,8.11,5.07,15.5,> 100
c1ccc(CSC(SCc2ccccc2)c2ccc3c(c2)OCO3)cc1,> 10,,,> 10,> 10,> 10,> 10,> 10,> 10,> 10
COc1ccc(C2C(Cl)C(=O)N2NC(=O)c2ccccc2O)cc1OC (stereo not given),,> 100,> 100,> 100,> 100,,> 100,> 100,> 100,
